Measured values published in patent publication US5177015A, “Onco-developmentally regulated α-N-acetylgalactosaminyltransferase” (Fred Hutchinson Cancer Research Centre, priority 1992, dated 1993).
Blank lines part the entries; values can stand above or below the molecule they belong to. Ends that are not written are not given here.

Key:
[1] = test system: α-N-acetylgalactosaminyltransferase in crude homogenates of human hepatoma cells (HUH-7); assay: Specific activity of α-N-acetylgalactosaminyltransferase toward various acceptors; assay type: biochemical; details: 200 nmol acceptor, HUH-7 homogenate, 25 mM Tris, 10 mM MgCl2, 1 mM CaCl2, pH 7.6, 2 hrs at 37° C., FDC-6 immunoaffinity
Protocol: 8×10^7 hepatoma cells (HUH-7) cultured in serum-free medium (Dulbecco-Modified Eagles Medium) were homogenized in a Potter-Elvehjem homogenizer with 200 μl of distilled water. 300 μl of tris buffer solution, consisting of 25 mM tris, 10 mM MgCl2 and 1 mM CaCl2, pH 7.6, was added. 0.3 nmol UDP[^3 H]-GalNAc (specific activity 8.7 Ci/mmol, New England Nuclear Research Product) and 25 nmol UDP-GalNAc were added and incubated for 2 hrs at 37° C. The incubation mixture was centrifuged at 10,000 rpm for 30 min. Supernatant was applied onto a 0.5 ml Sepharose 4B precolumn, followed by a 0.5 ml FDC-6 immunoaffinity column containing 10 mg of purified FDC-6 antibody/ml as described by Matsuura, H. et al. ((1988) J. Biol. Chem. 263, 3314-3322). Immunoprecipitation using 200 μl of FDC-6 binding Sepharose 4B was also performed as described by Bigler R. D. et al ((1988) J. Immunol. 144 21). Supernatants were incubated for 1 hr at 20° C. The column or immunoprecipitate was washed with 1M NaCl in 50 mM Tris buffer, pH 7.4, and eluted with 2.5M potassium thiocyanate in the same buffer solution. The eluate and washings were pooled and aliquots were counted. The same incubation mixture without addition of synthetic peptides or FN was used as a control.

[2] = test system: onco-developmentally regulated α-N-acetylgalactosaminyltransferase; assay: Solubilization of the enzyme with detergents; assay type: biochemical, human
Description: The particulate membrane fraction can be prepared according to the method of Holmes, E. H. et al. ((1985) J. Biol. Chem. 260, 7619-7627).

[3] = test system: onco-developmentally regulated α-N-acetylgalactosaminyltransferase (HUH-7 homogenate); details: 1 mM EDTA, 25 mM Tris buffer, pH 7.6
Protocol: In the present case, the requirement for metal ion for the onco-developmentally regulated α-N-acetylgalactosaminyltransferase was determined in 25 mM Tris buffer, pH 7.6, supplemented with 20 mM MnCl2, 10 mM MgCl2, 1 mM CaCl2 and combinations of two of these or 1 mM EDTA.
Hepatoma cell (HUH-7) homogenates and the synthetic and natural peptides set forth in the Table in Example 1 were prepared as in Example 1 and incubated as described in Example 1 using 25 mM Tris buffer, pH 7.6; supplemented with 20 mM MnCl2, 10 mM MgCl2, 1 mM CaCl2 and combinations of two of these or 1 mM EDTA.

[4] = test system: onco-developmentally regulated α-N-acetylgalactosaminyltransferase (HUH-7 homogenate); assay: Variation of incubation time (kinetics of α-GalNAc transfer to synthetic peptide); assay type: biochemical, human; details: 200 nmol TPI, Tris pH 7.6, 37°, incubated 10 min. to 24 hours
Protocol: C. Variation of incubation time. The standard reaction mixture described in Example 1 using TPI was incubated for 10 min to 24 hr. open circles, with TPI; closed circles, without TPI (control).
In order to determine the kinetics of α-GalNAc transfer to synthetic peptide, a reaction mixture containing 12.5 μmol Tris, pH 7.6, 200 nmol TPI, 0.3 nmol UDP[^3 H]-GalNAc, 25 nmol UDP-GalNAc, 5 μmol MgCl2, 0.5 μmol CaCl2 and homogenized hepatoma cells (HUH-7) was incubated for 10 min. to 24 hours at 37°. A parallel control was run without TPI. At the end of the incubation periods, the samples were treated as described in Example 1.

[5] = test system: onco-developmentally regulated α-N-acetylgalactosaminyltransferase (hepatoma cell homogenate); assay: Effect of UDP-GalNAc concentration (Hanes-Woolf plot of saturation data); assay type: biochemical, human; details: UDP-GalNAc 0.6 μM to 200 μM, 200 nmol TPI, read-out: apparent Km for UDP-GalNAc
Protocol: B. Effect of UDP-GalNAc concentration. A Hanes-Woolf plot of saturation data was obtained by varying UDP-GalNAc concentration from 0.6 μM to 200 μM. The reaction was conducted as described in Example 2 in the presence of 100 mg protein and 200 nmol TPI. The specific activity of UDP[^3 H]-GalNAc utilized was 4×10^6 cpm/nmol.
The apparent Km for UDP-GalNAc can be determined by generating a Hanes-Woolf plot of saturation data obtained by varying the UDP-GalNAc concentration at a constant cellular or tissue protein concentration and a constant substrate concentration. A preferred substrate for this assay is TPI.
A Hanes-Woolf plot of saturation data was obtained by varying UDP-GalNAc concentration from 0.6 μM to 200 μM. The reaction as conducted as described in Example 1 in the presence of 100 mg protein of hepatoma cell homogenate and 200 nmol TPI. The specific activity of the UDP[^3 H]-GalNAc used was 4×10^6 cpm/nmol. The reacted samples were also treated as described in Example 1.

Molecule: VTHPGY [VTY, val-thr-his-pro-gly-tyr]
Activity (specific activity of the enzyme to the acceptor) [1]: 0.03 pmol/hr/mg protein

Molecule: C[C@H](CCC(=O)NCCC[N+](C)(C)CC(O)CS(=O)(=O)[O-])[C@H]1CC[C@H]2[C@@H]3[C@H](O)C[C@@H]4C[C@H](O)CC[C@]4(C)[C@H]3C[C@H](O)[C@]12C (some centres unmarked) [CHAPSO, 3-(3-cholamidopropyldimethylammonio)-1-(20-hydroxy-1-propanesulfonate)]
Effect of solubilization with detergent on enzyme activity [2]: does not enhance enzyme activity

Molecule: O=C(O)CN(CCN(CC(=O)O)CC(=O)O)CC(=O)O [EDTA]
Enzyme activity in the presence of EDTA [3]: totally abolished

Molecule: thr-pro-phe-val-thr-his-pro-gly-tyr-asp-thr-gly-asn-gly-ile-gln-leu-pro-gly-thr-ser-gly-gln-gln-pro-ser-val-gly-gln-gln (TPFVTHPGYDTGNGIQLPGTSGQQPSVGQQ) [TPQ]
Activity (specific activity of the enzyme to the acceptor) [1]: 0.06 pmol/hr/mg protein

Molecule: Triton X-100
Effect of solubilization with detergent on enzyme activity [2]: does not enhance enzyme activity

Time over which α-GalNAc transfer to synthetic peptide is linear [4]: about 2 hours
Molecule: thr-pro-phe-val-thr-his-pro-gly-tyr-asp-thr-gly-asn-gly-ile (TPFVTHPGYDTGNGI) [TPI]
Activity (specific activity of the enzyme to the acceptor) [1]: 0.11 pmol/hr/mg protein

Molecule: CC(=O)NC1C(OP(=O)(O)OP(=O)(O)OCC2OC(n3ccc(=O)[nH]c3=O)C(O)C2O)OC(CO)C(O)C1O (centres unmarked) [UDP-GalNAc]
Km [5]: ~48 µM
